Measured values as given in patent US11076595B2, “1-(n,n-disubstituted carbamoyl) 4-(substituted sulfonyl)triazolin-5-one derivative, 4-(n,n-disubstituted carbamoyl) 1-(substituted sulfonyl)triazolin-5-one derivative, and herbicide containing said derivative as active ingredient” (HOKKO CHEMICAL INDUSTRY CO., LTD., priority 2017, dated 2021).

Experiments:
Format in all cases: in vivo
crabgrass [1] = assay: Test Example 13: herbicidal effect test by soil treatment in upland field; details: 120 g/10a, 14 days after treatment
Procedure, shortened: (§1)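 Pre-emergence soil treatment: alluvial soil pots (36 cm^2) sown with 20 seeds per weed species, sprayed one day later with water-diluted emulsifiable concentrate at 100 liter per 10 are, equal to 120 g active ingredient per 10 are. Two replicates; weed suppression (%) from dry weight versus untreated plots at 14 days.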

Echinochloa crus-galli [2] = assay: as above; details: 120 g/10a, 14 days after treatment
Procedure, shortened: as §1

Amaranthus viridis [3] = assay: as above; details: 120 g/10a, 14 days after treatment
Procedure, shortened: as §1

Chenopodium album [4] = assay: as above; details: 120 g/10a, 14 days after treatment
Procedure, shortened: as §1

crabgrass [5] = assay: Test Example 14: herbicidal effect test by foliage treatment in upland field; details: 7 days after sowing, 120 g/10a, 14 days after treatment
Procedure, shortened: (§2)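 Dose: 120 g a.i. per 10 are, sprayed in 100 L water per 10 are onto pots seven days post-sowing in alluvial soil. After 14 days, weed dry weight relative to untreated plots gave suppression rate (%); duplicate plots per concentration.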

Chenopodium album [6] = assay: as above; details: 7 days after sowing, 120 g/10a, 14 days after treatment
Procedure, shortened: as §2

Scirpus juncoides [7] = assay: Test Example 12: herbicidal effect test by treatment during growing period in paddy field; details: 120 g/10a; treatment seven days after sowing in flooded paddy pot; assessed 14 days after treatment
Procedure, shortened: (§3)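 Read-out: weed suppression (%) = (1 − treated/untreated mean dry weight) × 100, scored 14 days after treatment with two replications. Pots held puddled paddy soil, 30 seeds per species sown 0–1 cm, flooded ~3 cm. Post-emergence dropwise water application at 7 days after sowing, 120 g a.i./10 are.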

Echinochloa crus-galli [8] = assay: as above; details: 120 g/10a; treatment seven days after sowing in flooded paddy pot; assessed 14 days after treatment
Procedure, shortened: as §3

Lindernia pyxidaria [9] = assay: as above; details: 120 g/10a; treatment seven days after sowing in flooded paddy pot; assessed 14 days after treatment
Procedure, shortened: as §3

Monochoria vaginalis [10] = assay: as above; details: 120 g/10a; treatment seven days after sowing in flooded paddy pot; assessed 14 days after treatment
Procedure, shortened: as §3

Scirpus juncoides [11] = assay: Test Example 11: herbicidal effect test by soil treatment in paddy field; details: 120 g/10a active ingredient, 14 days after treatment
Procedure, shortened: (§4)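 Seeds were sown 0-1 cm deep in puddled, fertilised paddy soil in Wagner pots and kept under about 3 cm of flooding in a greenhouse. Diluted emulsifiable concentrate was added dropwise right after sowing at 120 g a.i. per 10 are. Suppression (%) came from dry weight versus untreated pots after 14 days, two replicates.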

Echinochloa crus-galli [12] = assay: as above; details: 120 g/10a active ingredient, 14 days after treatment
Procedure, shortened: as §4

Lindernia pyxidaria [13] = assay: as above; details: 120 g/10a active ingredient, 14 days after treatment
Procedure, shortened: as §4

Monochoria vaginalis [14] = assay: as above; details: 120 g/10a active ingredient, 14 days after treatment
Procedure, shortened: as §4

Echinochloa crus-galli [15] = assay: Test Example 14: herbicidal effect test by foliage treatment in upland field; details: 7 days after sowing, 120 g/10a, 14 days after treatment
Procedure, shortened: as §2

Amaranthus viridis [16] = assay: as above; details: 7 days after sowing, 120 g/10a, 14 days after treatment
Procedure, shortened: as §2

Compound	herbicidal effect, Crabgrass (crabgrass [1])	herbicidal effect, Echinochloa crus-galli (Echinochloa crus-galli [2])	herbicidal effect, Amaranthus viridis (Amaranthus viridis [3])	herbicidal effect, Chenopodium album (Chenopodium album [4])	herbicidal effect, Crabgrass (crabgrass [5])	herbicidal effect, Chenopodium album (Chenopodium album [6])	Weed suppression rate (%) Scirpus juncoides (Scirpus juncoides [7])	Weed suppression rate (%) Echinochloa crus-galli (Echinochloa crus-galli [8])	Weed suppression rate (%) Lindemia pyxidaria (Lindernia pyxidaria [9])	Weed suppression rate (%) Monochoria vaginalis (Monochoria vaginalis [10])	Weed suppression rate (%) Scirpus juncoides (Scirpus juncoides [11])	Weed suppression rate (%) Echinochloa crus-galli (Echinochloa crus-galli [12])	Weed suppression rate (%) Lindemia pyxidaria (Lindernia pyxidaria [13])	Weed suppression rate (%) Monochoria vaginalis (Monochoria vaginalis [14])	herbicidal effect, Echinochloa crus-galli (Echinochloa crus-galli [15])	herbicidal effect, Amaranthus viridis (Amaranthus viridis [16])
COc1ccc(S(=O)(=O)n2ncn(C(=O)N(c3c(F)cc(F)cc3F)C(C)C)c2=O)cc1 [Compound 11-1155]	90%	90%	30%	30%	100%	60%	90%	100%	80%	90%	100%	100%	100%	80%	90%	30%
CC(C)N(C(=O)n1cnn(S(=O)(=O)C2CC2)c1=O)c1ccccc1 [Compound 11-159]	90%	80%	90%	80%	90%	80%	80%	90%	70%	90%	90%	90%	80%	80%	80%	90%
CC(C)N(C(=O)n1cnn(S(=O)(=O)C2CC2)c1=O)c1ccc(F)c(F)c1F [Compound 11-194]	90%	90%	100%	70%	100%	80%	100%	100%	100%	100%	100%	100%	100%	100%	100%	90%
CC(C)N(C(=O)n1cnn(S(=O)(=O)c2c(F)cccc2F)c1=O)c1ccccc1 [Compound 11-762]	90%	80%	60%	60%	90%	60%	80%	80%	60%	90%	40%	90%	90%	90%	90%	70%
Cc1ccc(S(=O)(=O)n2ncn(C(=O)N(c3ccc(F)cc3F)C(C)C)c2=O)cc1 [Compound 11-637]	90%	100%	40%	40%	80%	0%	90%	100%	90%	90%	90%	100%	100%	100%	80%	0%
CC(C)N(C(=O)n1cnn(S(=O)(=O)c2ccccc2Cl)c1=O)c1ccc(F)cc1F [Compound 11-512]	100%	100%	70%	50%	90%	50%	90%	100%	100%	100%	100%	100%	100%	100%	80%	40%
CC(C)N(C(=O)n1cnn(S(=O)(=O)N(C)C)c1=O)c1ccc(F)cc1 [Compound 11-1056]	90%	80%	90%	80%	90%	80%	90%	90%	80%	80%	90%	90%	80%	80%	80%	90%
Cc1cc(C)c(S(=O)(=O)n2ncn(C(=O)N(c3ccc(F)cc3Cl)C(C)C)c2=O)c(C)c1 [Compound 11-870]	90%	80%	90%	80%	90%	80%	90%	90%	80%	80%	90%	90%	80%	80%	80%	90%
Cc1ccc(N(C(=O)n2cnn(S(=O)(=O)C3CC3)c2=O)C(C)C)c(F)c1 [Compound 11-212]	100%	100%	60%	60%	90%	80%	90%	90%	80%	80%	90%	100%	90%	80%	80%	90%
COc1ccc(S(=O)(=O)n2ncn(C(=O)N(c3cccc(F)c3F)C(C)C)c2=O)cc1 [Compound 11-1149]	70%	70%	30%	30%	80%	70%	100%	100%	80%	100%	100%	100%	100%	100%	70%	30%
